BindingDB's records for doi:10.1021/jm00113a020 (Case Western Reserve University, 1991)
pKi: −log10 of the molar value. Starred links: 1 amine or outer side, 2 acyl side, 3 side chain; linkers in the order of their positions; H or OH if unused. Residues, ends and D or L forms follow the SMILES beside them. Ethylenediamine = C(CN[*:2])N[*:1]; GABA = NCCCC(=O)O

Test: The compound was tested for binding activity towards Opioid receptor delta 1 in guinea pig brain membranes.

| Compound | pKi |
| --- | --- |
| NCCCC(=O)NCCNC(=O)[C@H](Cc1ccccc1)NC(=O)CNC(=O)CNC(=O)[C@@H](N)Cc1ccc(O)cc1 (H-YGGF-{Ethylenediamine-GABA}) | 5.00 |
| NCCCC(=O)NCCCN(CCCNC(=O)[C@H](Cc1ccccc1)NC(=O)CNC(=O)CNC(=O)[C@@H](N)Cc1ccc(O)cc1)C(=O)CCCN (HELM PEPTIDE1{Y.G.G.F.[NCCCC(=O)NCCCN(CCCN[*:1])C(=O)CCCN]}$$$$V2.0) | 5.07 |
| NCCCC(=O)NCCN(CCNC(=O)[C@H](Cc1ccccc1)NC(=O)CNC(=O)CNC(=O)[C@@H](N)Cc1ccc(O)cc1)C(=O)CCCN (HELM PEPTIDE1{Y.G.G.F.[NCCCC(=O)NCCN(CCN[*:1])C(=O)CCCN]}$$$$V2.0) | 4.64 |
| NCCCC(=O)NCCN(CCN(CCNC(=O)[C@H](Cc1ccccc1)NC(=O)CNC(=O)CNC(=O)[C@@H](N)Cc1ccc(O)cc1)C(=O)CCCN)C(=O)CCCN [4-Amino-N-[2-(4-amino-butyrylamino)-ethyl]-N-[2-((4-amino-butyryl)-{2-[2-(2-{2-[2-amino-3-(4-hydroxy-phenyl)-propionylamino]-acetylamino}-acetylamino)-3-phenyl-propionylamino]-ethyl}-amino)-ethyl]-butyramide] (HELM PEPTIDE1{Y.G.G.F.[NCCCC(=O)NCCN(CCN(CCN[*:1])C(=O)CCCN)C(=O)CCCN]}$$$$V2.0) | < 5.00 |
| CC[C@H](C)[C@H](NC(=O)[C@H](CCCN=C(N)N)NC(=O)[C@H](CCCN=C(N)N)NC(=O)[C@H](CC(C)C)NC(=O)[C@H](Cc1ccccc1)NC(=O)CNC(=O)CNC(=O)[C@@H](N)Cc1ccc(O)cc1)C(=O)N[C@@H](CCCN=C(N)N)C(=O)N1CCC[C@H]1C(=O)N[C@@H](CCCCN)C(=O)N[C@@H](CC(C)C)C(=O)N[C@@H](CCCCN)C(=O)O [Dynorphin A (1-13)] | 7.80 |
